Patent publication US8852657B2, “Chromones as therapeutic agents” (Unigen, Inc., priority 2007, dated 2014)
“Also recorded” adds a separate entry of the source.

Legend:
[1] = system: adiponectin secreted into the media by differentiated 3T3-L1 cells; assay: Adiponectin ELISA assay, previously published protocol (differentiated 7 days, treated 24 hours); format: cell-based, mouse; details: for fold increase in adiponectin level: 1 μM, greatest fold increase, differentiated 7 days, treated 24 hours
Method: (§1) 3T3-L1, an embryonic mouse cell line (American Type Culture Collection, Manassas, Va.), is a sub-strain of the 3T3 swiss albino line that can differentiate from a pre-adipose to adipose state. These preadipocytes were cultured in Dulbecco's modified Eagle medium (DMEM) containing 10% fetal bovine serum (FBS) (Mediatech, Inc., Herndon, Va.).
(§2) To establish a differentiation protocol, the 3T3-L1 cells were plated into 96-well plates and cultured overnight to confluence. The confluent cells were induced to differentiate 2 days post-confluence. The induction was conducted with 0.5 mM isobutylmethylzanthine, 1.0 μM dexamethasone and 1.7 μM insulin (Sigma-Aldrich, St. Louis, Mo.) supplemented into culture media. On the 7th day the adipocytes were treated with the control compounds or plant extracts for 24 hours. All controls and plant extracts were solublized in DMSO and added to the culture media at 1% of the total volume. Cell media was collected to measure the levels of adiponectin and assayed by enzyme-linked immunosorbent assay (ELISA) according to the manufacturer's protocol (R&D Systems, Minneapolis, Minn.). The assay sensitivity ranged from 31.25-2000 pg/mL. The positive controls were tested in a range from 0.01 to 300 μM (FIG. 1).

[2] = system: adiponectin secreted into the media by differentiated 3T3-L1 cells; assay: Adiponectin ELISA assay, improved protocol (differentiated 2 days, treated 48 hours); format: cell-based, mouse; details: for activity in the adiponectin assay: sub-fractions and isolated compounds of P0017-OE
Method: as §1, §2
Due to the poor signal to background ratio of the assay (less than 2), the previously mentioned protocol needed to be improved. Adipocytes were plated and differentiated as previously described. The cells were differentiated in the differentiation medium for 48 hours either with or without the addition of insulin. Then the cells were treated with the control compounds or plant extracts for only 48 hours post-differentiation. All other parameters were the same as previously mentioned. The indomethacin (FIG. 1) and troglitazone (data not shown) controls were tested at 10-100 μM and 3-30 μM respectively. The greatest increase in the level of adiponectin was 52-fold above the signal of baseline which was achieved by indomethacin treatment at 100 μM, while the lowest increase was 7-fold with indomethacin at 10 μM (FIG. 1B).

[3] = system: C57BL/6J mice fed high fat diet; assay: Plasma insulin level (ELISA), high-fat diet induced model; format: in vivo, mouse; details: day 14 of treatment after 8 weeks high-fat diet; P<0.05; GW1929 5 mg/kg, UP394 and UP396 100 mg/kg
Description: A high-fat diet induced animal model was developed and used for evaluation of potential therapeutic effects of chromone extracts. The C57BL/6J is a clinically relevant animal model that can be used in studies on metabolic disorders, pathophysiology of impaired glucose tolerance and for development of novel therapeutic agents (Ahren et al. (2004) Diabetes 53 (Supplement 3):S215-S219; Laakso et al. (2004) Diabetes Care 27:2253-2259; Kahn et al. (2004) Diabetes 53:3274-3285; Scheurink et al. (1998) European J Endo. 139:461-467; Yuan et al. (2002) Diabetes 51:1851-1858; Reitman et al. (2005) Endocrinology 145:3258-3264; Vlassara et al. (2005) Diabetes 54:2314-2319; Cawthome et al. (2002) Molecular and Cellular Proteomics 1:509-516). Methodology of model induction was first explained by Surwit et al. in 1988 (Diabetes, 37:1163-1167). In brief, impaired glucose tolerance and metabolic disorder like symptoms were inflicted successfully in C57BL/6J mice when fed with high fat diets for 8 weeks. Male C57BL/6J mice were purchased from Jackson Laboratories (Bar Harbor, Me.) at age of 6 weeks. One week after acclimation period, animals were divided into groups (n=5 or 6) and provided with high fat (45% kcal) rodent pellet (Research diets, Inc., New Brunswick, N.J.) and water ad libitum for 12 weeks except at times of glucose and insulin tolerance tests at which feed was withheld for three hours. Animals were maintained in a temperature controlled room (22.2° C.) on a 12 hour light-dark cycle. Blood glucose, cholesterol, and triglyceride were monitored every week for 12 weeks as described previously. Body weight measurement was taken once a week for 12 weeks.
Once induction of the metabolic disorders was confirmed by weekly monitoring of selected parameters (glucose, triglyceride and cholesterol) i.e. on the 8th week, daily intraperitoneal treatment was initiated and maintained for 4 weeks. […]
The plasma insulin levels were measured with an ELISA kit for insulin (Crystal Chem—Chicago, Ill.). […]

tyrosinase = details: in vitro; Yagi et al. (1987); cited from earlier work
[4] = system: human intestinal bacteria; details: cited from earlier work
[5] = system: C57BL/6J mice fed high fat diet; assay: Intraperitoneal glucose tolerance test, high-fat diet induced model (UP394/UP396); format: in vivo, mouse; details: day 18; times 60, 90 and 120 minutes; p<0.05; GW1929 5 mg/kg, UP396 100 mg/kg intraperitoneally
Description: A high-fat diet induced animal model was developed and used for evaluation of potential therapeutic effects of chromone extracts. The C57BL/6J is a clinically relevant animal model that can be used in studies on metabolic disorders, pathophysiology of impaired glucose tolerance and for development of novel therapeutic agents (Ahren et al. (2004) Diabetes 53 (Supplement 3):S215-S219; Laakso et al. (2004) Diabetes Care 27:2253-2259; Kahn et al. (2004) Diabetes 53:3274-3285; Scheurink et al. (1998) European J Endo. 139:461-467; Yuan et al. (2002) Diabetes 51:1851-1858; Reitman et al. (2005) Endocrinology 145:3258-3264; Vlassara et al. (2005) Diabetes 54:2314-2319; Cawthome et al. (2002) Molecular and Cellular Proteomics 1:509-516). Methodology of model induction was first explained by Surwit et al. in 1988 (Diabetes, 37:1163-1167). […] Blood glucose, cholesterol, and triglyceride were monitored every week for 12 weeks as described previously. […]
An intraperitoneal glucose tolerance test was conducted using the C57BL/6J mice as described in Example 12 at a dose of 2 g/kg on day 18 of treatment with intraperitoneal administration of GW1929 (5 mg/kg), UP394 (100 mg/kg), UP396 (100 mg/kg) and vehicle. […] Blood glucose levels were measured at time 0, 30, 60, 90, and 120 minutes. […]

Row | Compound | fold increase in adiponectin level [1] | fold increase in adiponectin level ([2]; 30 μM, treated 48 hours) | activity in the adiponectin assay [2] | plasma insulin levels compared to vehicle [3] | also measured
1 | Cc1c(C)c2c(c(C)c1O)CCC(C)(COc1ccc(CC3SC(=O)NC3=O)cc1)O2 (stereo not drawn) [troglitazone] | 1.7 fold | 49 fold |  |  | fold increase in adiponectin level ([2]; 3 μM, treated 48 hours): 24 fold
2 | CC(=O)Cc1cc(=O)c2c(C)cc(O)c([C@@H]3O[C@H](CO)[C@@H](O)[C@H](O)[C@H]3O)c2o1 [UP394, aloesin] |  | 2 fold | active in increasing adiponectin production | decreased the insulin levels significantly; also recorded: Significant decreases in plasma insulin levels | activity in the adiponectin assay ([2]; listed as P0017-AC1): exhibited activity in the adiponectin assay; inhibition of tyrosinase activity (tyrosinase): strong inhibitor; cleavage of the c-glucosyl bond [4]: can be cleaved
3 | Cc1cc(O)c(C2OC(O)C(O)C(O)C2CO)c2oc(CC(C)O)cc(=O)c12 (stereo not drawn) [UP396, aloesinol] |  | 3.2 fold |  |  | 
4 | COc1ccc2c(c1)c(CC(=O)O)c(C)n2C(=O)c1ccc(Cl)cc1 [indomethacin] | 1.6 fold |  |  |  | signal to background ratio of the assay ([1]; best ratio, indomethacin at concentrations between 0.1-300 μM, published experimental conditions): 1.6; fold increase in adiponectin level ([2]; 10 μM, differentiated 2 days, treated 2 days): 7 fold; fold increase in adiponectin level ([2]; 100 μM, differentiated 2 days, treated 2 days): 52 fold
5 | aloesinol [UP396] |  |  | active in increasing adiponectin production | decreased the insulin levels significantly; also recorded: Significant decreases in plasma insulin levels | activity in the adiponectin assay ([2]; listed as P0017-AC2): exhibited activity in the adiponectin assay; glucose utilization in intraperitoneal glucose tolerance test compared to vehicle [5]: Significant glucose utilization
